Measurements reported in PubChem BioAssay AID1259407 (Chemical Carcinogenesis Research Information System (CCRIS), 2018).
Activity calls are given as the source filed them. How the calls were made is not given here.

Test system: CCRIS mutagenicity, Ames/micronucleus/aberration tests
Experiment: CCRIS mutagenicity studies
[1] = Test System: AMES SALMONELLA TYPHIMURIUM, Strain/Indicator: TA100, Metabolic Activation: NONE, Method: STANDARD PLATE
[2] = Test System: AMES SALMONELLA TYPHIMURIUM, Strain/Indicator: TA1535, Metabolic Activation: NONE, Method: STANDARD PLATE
[3] = Test System: AMES SALMONELLA TYPHIMURIUM, Strain/Indicator: TA1537, Metabolic Activation: NONE, Method: STANDARD PLATE
[4] = Test System: AMES SALMONELLA TYPHIMURIUM, Strain/Indicator: TA98, Metabolic Activation: NONE, Method: STANDARD PLATE
[5] = Test System: AMES SALMONELLA TYPHIMURIUM, Strain/Indicator: TA98, Metabolic Activation: NONE, Method: PREINCUBATION
[6] = Test System: AMES SALMONELLA TYPHIMURIUM, Strain/Indicator: TA100, Metabolic Activation: NONE, Method: PREINCUBATION
[7] = Test System: AMES SALMONELLA TYPHIMURIUM, Strain/Indicator: TA100, Metabolic Activation: RAT, LIVER, S-9, AROCLOR 1254, Method: STANDARD PLATE

O=[N+]([O-])c1ccc2c3c(ccc([N+](=O)[O-])c13)-c1ccccc1-2
mutagenic call (Test System: AMES SALMONELLA TYPHIMURIUM, Strain/Indicator: TA97, Metabolic Activation: NONE): active; positive
mutagenic call (Test System: AMES SALMONELLA TYPHIMURIUM, Strain/Indicator: TA98(1,8-DNP6), Metabolic Activation: NONE): active; positive
mutagenic call (Test System: AMES SALMONELLA TYPHIMURIUM, Strain/Indicator: TA98(NR), Metabolic Activation: NONE): active; positive
mutagenic call (Test System: AMES SALMONELLA TYPHIMURIUM, Strain/Indicator: TA98, Metabolic Activation: NONE): active; positive
mutagenic call (Test System: AMES SALMONELLA TYPHIMURIUM, Strain/Indicator: TA100, Metabolic Activation: NONE): active; positive
mutagenic call (Test System: AMES SALMONELLA TYPHIMURIUM, Strain/Indicator: TA1535, Metabolic Activation: NONE): inactive; negative
mutagenic call (Test System: AMES SALMONELLA TYPHIMURIUM, Strain/Indicator: TA1537, Metabolic Activation: NONE): active; positive
mutagenic call (Test System: AMES SALMONELLA TYPHIMURIUM, Strain/Indicator: TA1538, Metabolic Activation: NONE): active; positive
mutagenic call (Test System: AMES SALMONELLA TYPHIMURIUM, Strain/Indicator: TA1978, Metabolic Activation: NONE): inactive; negative

O=[N+]([O-])c1ccc2c(CCO)c[nH]c2c1
mutagenic call (Test System: AMES SALMONELLA TYPHIMURIUM, Strain/Indicator: TA97A, Metabolic Activation: NONE, Method: STANDARD PLATE): active; positive
mutagenic call (Test System: AMES SALMONELLA TYPHIMURIUM, Strain/Indicator: TA98(1,8-DNP6), Metabolic Activation: NONE, Method: STANDARD PLATE): active; positive
mutagenic call (Test System: AMES SALMONELLA TYPHIMURIUM, Strain/Indicator: TA98(NR), Metabolic Activation: NONE, Method: STANDARD PLATE): active; positive
mutagenic call (Test System: AMES SALMONELLA TYPHIMURIUM, Strain/Indicator: TA98, Metabolic Activation: NONE, Method: SEM (1.1) 100-2000 NM (TEST MATERIAL SOLVENT: DMSO) 100-2000 N 2000 N): active; positive
mutagenic call [1]: active; positive
mutagenic call [2]: inactive; negative
mutagenic call [3]: active; positive

CC(=O)ON(OCc1ccc(Cl)cc1)C(=O)c1ccccc1
mutagenic call [1]: active; positive
mutagenic call (Test System: AMES SALMONELLA TYPHIMURIUM, Strain/Indicator: TA100, Metabolic Activation: RAT, S-9, AROCLOR, Method: STANDARD PLATE): active; positive

CS(=O)CCC(=O)N1[C@@H](c2ccccc2O)SC[C@H]1C(=O)O (some centres undefined)
mutagenic call [4]: inactive; negative
mutagenic call [1]: inactive; negative
mutagenic call [2]: inactive; negative
mutagenic call [3]: inactive; negative
mutagenic call (Test System: AMES SALMONELLA TYPHIMURIUM, Strain/Indicator: TA1538, Metabolic Activation: NONE, Method: STANDARD PLATE): inactive; negative
mutagenic call (Test System: E. COLI, Strain/Indicator: WP2, Metabolic Activation: NONE, Method: STANDARD PLATE): inactive; negative
mutagenic call (Test System: E. COLI, Strain/Indicator: WP2 UVRA, Metabolic Activation: NONE, Method: STANDARD PLATE): inactive; negative

CC(=O)NS(=O)(=O)c1ccc(N)cc1
mutagenic call (End Point: IN VITRO CHROMOSOMAL ABERRATIONS, Test System: CHINESE HAMSTER OVARY CELLS, Metabolic Activation: NONE): inactive; negative
mutagenic call (End Point: IN VITRO CHROMOSOMAL ABERRATIONS, Test System: CHINESE HAMSTER OVARY CELLS, Metabolic Activation: RAT, LIVER, S-9, AROCLOR 1254): inactive; negative
mutagenic call (Test System: AMES SALMONELLA TYPHIMURIUM, Strain/Indicator: TA98, Metabolic Activation: HAMSTER, LIVER, S-9, AROCLOR 1254 (10%), Method: PREINCUBATION): inactive; negative
mutagenic call [5]: inactive; negative
mutagenic call (Test System: AMES SALMONELLA TYPHIMURIUM, Strain/Indicator: TA98, Metabolic Activation: RAT, LIVER, S-9, AROCLOR 1254 (10%), Method: PREINCUBATION): inactive; negative
mutagenic call (Test System: AMES SALMONELLA TYPHIMURIUM, Strain/Indicator: TA100, Metabolic Activation: HAMSTER, LIVER, S-9, AROCLOR 1254 (10%), Method: PREINCUBATION): inactive; negative
mutagenic call [6]: inactive; negative
mutagenic call (Test System: AMES SALMONELLA TYPHIMURIUM, Strain/Indicator: TA100, Metabolic Activation: RAT, LIVER, S-9, AROCLOR 1254 (10%), Method: PREINCUBATION): inactive; negative
mutagenic call (Test System: AMES SALMONELLA TYPHIMURIUM, Strain/Indicator: TA1535, Metabolic Activation: HAMSTER, LIVER, S-9, AROCLOR 1254 (10%), Method: PREINCUBATION): inactive; negative
mutagenic call (Test System: AMES SALMONELLA TYPHIMURIUM, Strain/Indicator: TA1535, Metabolic Activation: NONE, Method: PREINCUBATION): inactive; negative
mutagenic call (Test System: AMES SALMONELLA TYPHIMURIUM, Strain/Indicator: TA1535, Metabolic Activation: RAT, LIVER, S-9, AROCLOR 1254 (10%), Method: PREINCUBATION): inactive; negative
mutagenic call (Test System: AMES SALMONELLA TYPHIMURIUM, Strain/Indicator: TA1537, Metabolic Activation: HAMSTER, LIVER, S-9, AROCLOR 1254 (10%), Method: PREINCUBATION): inactive; negative
mutagenic call (Test System: AMES SALMONELLA TYPHIMURIUM, Strain/Indicator: TA1537, Metabolic Activation: NONE, Method: PREINCUBATION): inactive; negative
mutagenic call (Test System: AMES SALMONELLA TYPHIMURIUM, Strain/Indicator: TA1537, Metabolic Activation: RAT, LIVER, S-9, AROCLOR 1254 (10%), Method: PREINCUBATION): inactive; negative

CCCCCCC(O)CCCCCCCCCCC(=O)O (centres undefined)
mutagenic call (Test System: AMES SALMONELLA TYPHIMURIUM, Strain/Indicator: TA97, Metabolic Activation: NONE, Method: STANDARD PLATE): inactive; negative
mutagenic call (Test System: AMES SALMONELLA TYPHIMURIUM, Strain/Indicator: TA97, Metabolic Activation: S-9, Method: STANDARD PLATE): inactive; negative
mutagenic call [4]: inactive; negative
mutagenic call [1]: inactive; negative
mutagenic call (Test System: AMES SALMONELLA TYPHIMURIUM, Strain/Indicator: TA100, Metabolic Activation: S-9, Method: STANDARD PLATE): inactive; negative
mutagenic call (Test System: AMES SALMONELLA TYPHIMURIUM, Strain/Indicator: TA102, Metabolic Activation: NONE, Method: STANDARD PLATE): inactive; negative
mutagenic call (Test System: AMES SALMONELLA TYPHIMURIUM, Strain/Indicator: TA102, Metabolic Activation: S-9, Method: STANDARD PLATE): inactive; negative
mutagenic call (Test System: E.COLI, Strain/Indicator: WP2 (PKM101), Metabolic Activation: NONE, Method: STANDARD PLATE): inactive; negative
mutagenic call (Test System: E.COLI, Strain/Indicator: WP2 (PKM101), Metabolic Activation: S-9, Method: STANDARD PLATE): inactive; negative

O=C(OCCBr)[C@@H](O)[C@H](O)C(=O)OCCBr
mutagenic call [1]: active; positive
mutagenic call [7]: active; positive

O=S(=O)(O)Oc1ccc2ccc3c4ccccc4cc4ccc1c2c43
mutagenic call [5]: inactive; negative
mutagenic call (Test System: AMES SALMONELLA TYPHIMURIUM, Strain/Indicator: TA98, Metabolic Activation: RAT, LUNG, S-9, Method: PREINCUBATION): inactive; negative

Clc1nncc2cnccc12
mutagenic call [5]: inactive; negative
mutagenic call (Test System: AMES SALMONELLA TYPHIMURIUM, Strain/Indicator: TA98, Metabolic Activation: RAT, LIVER, S-9, PCB, Method: PREINCUBATION): inactive; negative
mutagenic call [6]: inactive; negative
mutagenic call (Test System: AMES SALMONELLA TYPHIMURIUM, Strain/Indicator: TA100, Metabolic Activation: RAT, LIVER, S-9, PCB, Method: PREINCUBATION): inactive; negative

O=[N+]([O-])[O-].O=[N+]([O-])[O-].O=[N+]([O-])[O-].[Gd+3]
mutagenic call (Test System: UDS HUMAN LYMPHOCYTES, Strain/Indicator: THYMIDINE INCORPORATION, Metabolic Activation: NONE, Method: LIQUID SCINTILLATION COUNTING): active; positive

O=S(=O)(O)N(S(=O)(=O)O)S(=O)(=O)O
mutagenic call (Test System: AMES SALMONELLA TYPHIMURIUM, Strain/Indicator: G46, Metabolic Activation: RAT, LIVER, S-9, AROCLOR 1254, Method: STANDARD PLATE): inactive; negative
mutagenic call [7]: inactive; negative
